Patent US8815875B2 (Merck Sharp & Dohme Corp., priority 2008, dated 2014)

molecular target: FABP4 (Homo sapiens, UniProt P15090); test: TdF (Temperature Dependence Fluorescence) assay, thermal shift, FABP4; type: binding
From the text: TdF (Temperature Dependence Fluorescence) Assay for FABP3 and FABP4
The TdF assay was mainly conducted in the 96-well based CHROMO-4 real time fluorescence plate reader (BioRad). The Sypro Orange (Sigma-Aldrich), environmentally sensitive fluorescence dye, was used to monitor the protein folding-unfolding transition. Protein-ligand binding was gauged by the change (or shift) in the unfolding transition temperature (ΔTm) acquired at protein alone with respect to protein in the presence of ligand of interest.
The compound of interest was first prepared in DMSO stock (typical concentration: 10 mM). […] Final percentage of DMSO resided in the sample was 2%. The sample plate was heated from 30° C. to 90° C. with thermal ramping rate of 1° C./min. The fluorescence signals were acquired with excitation and emission wavelengths centered at 490 and 560 nm respectively. The instrument thermal stability was ±0.2° C.
Theoretical basis for TdF-based ligand binding affinity constant
In brief, the binding constant of the ligand at the Tm is expressed as below:
[formula] where To is the midpoint of unfolding for unliganded protein and Tm is the midpoint of unfolding in presence of ligand. [LTm] is free ligand at Tm. The ΔHu and ΔCpu are the enthalpy of unfolding and heat capacity change of unfolding for the protein respectively.
The nonlinear regression fitting in general readily reaches convergence by properly constraining the initial values for the fitting parameters (e.g. the initial “guess” for the ΔHu was constrained to 120 kcal/mol; initial Yn and mn were set to 1 and zero to best represent the melting curve along the low temperature region; negative slope of −0.5 was initially chosen for mu; initial Tm was also constrained to 50° C.).
[formula] (see Brandts et al and Mayhood et al, shown above) where ΔHL (T) is the van't Hoff enthalpy of ligand binding at temperature T and ΔCpL is the heat capacity upon ligand binding. For simplicity, the ΔCpL and ΔHL (T) were set to zero and −7 kcal/mol respectively. […] TdCD (Temperature-dependent Circular Dichroism) Assay for FABP3/4/5

Sequence of FABP4 (P15090 whole entry, species assumed): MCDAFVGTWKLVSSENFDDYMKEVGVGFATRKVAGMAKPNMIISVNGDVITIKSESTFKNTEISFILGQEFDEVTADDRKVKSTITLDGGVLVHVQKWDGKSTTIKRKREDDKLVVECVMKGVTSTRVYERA

| Compound | FABP4 TdF Kd | Kd |
| --- | --- | --- |
| O=c1c(Cl)c(CN2CCOc3c(Br)cccc32)[nH]c2nc(-c3ccccc3)nn12 [24-4] | B (0.5 ≦ B < 0.001 μM) |  |
| O=C(NCC1CC1)C1(OCc2cc(=O)n3nc(-c4ccccc4)nc3[nH]2)CCCCC1 [48-16] | B (0.5 ≦ B < 0.001 μM) |  |
| Cc1ccc(OCc2cc(=O)n3nc(C(F)(F)F)nc3[nH]2)cc1C [5-4] |  | > 500 nM |
| Cc1ccc(C(C)C)cc1N(C)Cc1cc(=O)n2nc(-c3ccccc3)nc2[nH]1 [1-35] | B (0.5 ≦ B < 0.001 μM) |  |
| CCc1ccc(OCc2cc(=O)n3nc(COC(C)=O)nc3[nH]2)cc1 [8-9] |  | > 500 nM |
| COc1cccc(C2(CNC(=O)C3(OCc4cc(=O)n5nc(-c6ccccc6)nc5[nH]4)CCCCC3)CC2)c1 [48-70] | B (0.5 ≦ B < 0.001 μM) |  |
| CC1(C)CC(OCc2cc(=O)n3nc(-c4ccccc4)nc3[nH]2)CC(C)(C)C1 [1-97] | B (0.5 ≦ B < 0.001 μM) |  |
| O=C(NCC1(CO)CCC1)C1(OCc2[nH]c3nc(-c4ccccc4)nn3c(=O)c2Cl)CCCCC1 [50-6] | B (0.5 ≦ B < 0.001 μM) |  |
| NC1(COC(=O)C2(OCc3cc(=O)n4nc(-c5ccccc5)nc4[nH]3)CCCCC2)CCOCC1 [48-68] |  | > 500 nM |
| O=C(N1CCC[C@@H]1CO)C1(OCc2cc(=O)n3nc(-c4ccccc4)nc3[nH]2)CCCCC1 [48-66] |  | > 500 nM |
| Cc1ccccc1C1(NC(=O)C2(OCc3cc(=O)n4nc(-c5ccccc5)nc4[nH]3)CCCCC2)CC1 [48-50] | B (0.5 ≦ B < 0.001 μM) |  |
| O=C(NCC1(c2ccc(Cl)cc2)CC1)C1CCCCC1OCc1cc(=O)n2nc(-c3ccccc3)nc2[nH]1 (stereo not shown) [48-76] | B (0.5 ≦ B < 0.001 μM) |  |
| CCc1ccc(OCc2[nH]c3nc(-c4ccccc4)nn3c(=O)c2C)cc1 [15-3] |  | > 500 nM |
| O=c1cc(CN2CCOc3c(Br)cccc32)[nH]c2nc(-c3ccccc3)nn12 [1-81] | B (0.5 ≦ B < 0.001 μM) |  |
| O=C(NCC1CC1)c1ccccc1OCc1[nH]c2nc(-c3ccccc3)nn2c(=O)c1Cl [24-15] | B (0.5 ≦ B < 0.001 μM) |  |
| CCc1ccc(OCc2cc(=O)n3nc(-c4cccnc4)nc3[nH]2)cc1 [8-5] |  | > 500 nM |

| Compound | FABP4 TdF Kd | Kd |
| --- | --- | --- |
| O=C(N1CCc2ccc(Cl)cc21)C1(OCc2cc(=O)n3nc(-c4ccccc4)nc3[nH]2)CCCCC1 [48-64] | B (0.5 ≦ B < 0.001 μM) |  |
| CCc1ccc(OCc2cc(=O)n3ncnc3[nH]2)cc1 [7-1] |  | > 500 nM |
| O=c1cc(COC2CCNCC2)[nH]c2nc(-c3ccccc3)nn12 [1-42] |  | > 500 nM |
| O=c1cc(CN2CCCc3ccccc32)[nH]c2nc(-c3ccccc3)nn12 [1-13] | B (0.5 ≦ B < 0.001 μM) |  |
| O=c1cc(CNc2ccc(F)c(F)c2)[nH]c2nc(C(F)(F)F)nn12 [5-5] |  | > 500 nM |
| O=c1cc(CN2CCC(Cc3ccc(Cl)cc3)CC2)[nH]c2nc(-c3ccccc3)nn12 [1-78] |  | > 500 nM |
| COc1ccccc1C1(NC(=O)C2(OCc3cc(=O)n4nc(-c5ccccc5)nc4[nH]3)CCCCC2)CC1 [48-13, N-(1-(2-methoxyphenyl)cyclopropyl)-1-((7-oxo-2-phenyl-4,7-dihydro-[1,2,4]triazolo[1,5-a]pyrimidin-5-yl)methoxy)cyclohexanecarboxamide] |  | ≤ 1 nM |
| CCc1ccc(OCc2cc(=O)n3nc(C4CCC4)nc3[nH]2)cc1 [8-6] |  | > 500 nM |
| CCc1ccc(NCc2cc(=O)n3nc(CC)nc3[nH]2)cc1 [5-8] |  | > 500 nM |
| CN(CC1(CO)CCC1)C(=O)C1(OCc2cc(=O)n3nc(-c4ccccc4)nc3[nH]2)CCCCC1 [48-46] | B (0.5 ≦ B < 0.001 μM) |  |
| CC1(C)CN(Cc2cc(=O)n3nc(-c4ccccc4)nc3[nH]2)c2cccc(Br)c21 [39-5] | B (0.5 ≦ B < 0.001 μM) |  |
| O=C(O)C1(NC(=O)C2(OCc3cc(=O)n4nc(-c5ccccc5)nc4[nH]3)CCCCC2)CCCCC1 [48-44] | B (0.5 ≦ B < 0.001 μM) |  |
| CC1(C)CCC(=O)N(Cc2cc(=O)n3nc(-c4ccccc4)nc3[nH]2)C1 [1-95] |  | > 500 nM |
| O=C(N1CCS(=O)(=O)CC1)C1(OCc2cc(=O)n3nc(-c4ccccc4)nc3[nH]2)CCCCC1 [48-4, 4-[[1-[(4,7-dihydro-7-oxo-2-phenyl[1,2,4]triazolo[1,5-a]pyrimidin-5-yl)methoxy]cyclohexyl]carbonyl]thiomorpholine, 1,1-dioxide] |  | > 500 nM |
| CN(C(=O)C1(OCc2[nH]c3nc(-c4ccccc4)nn3c(=O)c2Cl)CCCCC1)C1CCCCC1 [50-4] | B (0.5 ≦ B < 0.001 μM) |  |
| CCCCC1(C)CN(Cc2cc(=O)n3nc(-c4ccccc4)nc3[nH]2)c2cccc(Cl)c21 (stereo not shown) [41-3] | B (0.5 ≦ B < 0.001 μM) |  |

Second part, the compound after the results:

| FABP4 TdF Kd | Kd | Compound |
| --- | --- | --- |
| B (0.5 ≦ B < 0.001 μM) |  | O=C(NC1(CO)CC1)c1c(Cl)cccc1OCc1cc(=O)n2nc(-c3ccccc3)nc2[nH]1 [47-12, 2-chloro-N-(1-(hydroxymethyl)cyclopropyl)-6-((7-oxo-2-phenyl-4,7-dihydro-[1,2,4]triazolo[1,5-a]pyrimidin-5-yl)methoxy)benzamide] |
| B (0.5 ≦ B < 0.001 μM) |  | O=C(NCC1(c2ccccc2Cl)CC1)c1ccccc1OCc1cc(=O)n2nc(-c3ccccc3)nc2[nH]1 [47-60] |
| B (0.5 ≦ B < 0.001 μM) |  | Cn1ccc(NC(=O)c2c(Cl)cccc2OCc2cc(=O)n3nc(-c4ccccc4)nc3[nH]2)n1 [47-40] |
| B (0.5 ≦ B < 0.001 μM) |  | O=c1cc(COc2cccc(F)c2)[nH]c2nc(-c3ccccc3)nn12 [1-93] |
| B (0.5 ≦ B < 0.001 μM) |  | O=C(NCC1(O)CCCC1)c1c(Cl)cccc1OCc1cc(=O)n2nc(-c3ccccc3)nc2[nH]1 [47-15, 2-chloro-N-((1-hydroxycyclopentyl)methyl)-6-((7-oxo-2-phenyl-4,7-dihydro-[1,2,4]triazolo[1,5-a]pyrimidin-5-yl)methoxy)benzamide] |
| B (0.5 ≦ B < 0.001 μM) |  | O=C(NCC1(CO)CCOCC1)c1c(Cl)cccc1OCc1cc(=O)n2nc(-c3ccccc3)nc2[nH]1 [47-26, 2-chloro-N-((4-(hydroxymethyl)tetrahydro-2H-pyran-4-yl)methyl)-6-((7-oxo-2-phenyl-4,7-dihydro-[1,2,4]triazolo[1,5-a]pyrimidin-5-yl)methoxy)benzamide] |
| B (0.5 ≦ B < 0.001 μM) |  | O=C(O)c1c(Cl)cccc1OCc1cc(=O)n2nc(-c3ccccc3)nc2[nH]1 [47-1, 2-chloro-6-((7-oxo-2-phenyl-4,7-dihydro-[1,2,4]triazolo[1,5-a]pyrimidin-5-yl)methoxy)benzoic acid] |
| B (0.5 ≦ B < 0.001 μM) |  | O=c1cc(COc2ccccc2Br)[nH]c2nc(-c3ccccc3)nn12 [1-73] |
| B (0.5 ≦ B < 0.001 μM) |  | CCc1ccc(OCc2cc(=O)n3nc(-c4ccccc4)nc3[nH]2)c(C(C)(C)C)c1 [1-68] |
| B (0.5 ≦ B < 0.001 μM) |  | CCc1ccc(OCc2cc(=O)n3nc(-c4ccccc4)nc3[nH]2)c(OC)c1 [1-69] |
|  | > 500 nM | O=c1cc(COc2cccc(C(F)(F)F)c2)[nH]c2nc(-c3ccccc3)nn12 [1-59] |
| B (0.5 ≦ B < 0.001 μM) |  | O=C(NCC1(CO)CC1)c1ccccc1OCc1cc(=O)n2nc(-c3ccccc3)nc2[nH]1 [47-65] |
| B (0.5 ≦ B < 0.001 μM) |  | O=c1cc(COc2cccc(Cl)c2[N+](=O)[O-])[nH]c2nc(-c3ccccc3)nn12 [1-134] |
| B (0.5 ≦ B < 0.001 μM) |  | CC(NC(=O)c1c(Cl)cccc1OCc1cc(=O)n2nc(-c3ccccc3)nc2[nH]1)C1CCC1 (stereo not shown) [47-36] |
| B (0.5 ≦ B < 0.001 μM) |  | CC(C)(CNC(=O)c1c(Cl)cccc1OCc1cc(=O)n2nc(-c3ccccc3)nc2[nH]1)N1CCOCC1 [47-22, 2-chloro-N-(2-methyl-2-morpholinopropyl)-6-((7-oxo-2-phenyl-4,7-dihydro-[1,2,4]triazolo[1,5-a]pyrimidin-5-yl)methoxy)benzamide] |
|  | ≤ 1 nM | O=C(NCC1(c2ccc(Cl)cc2)CCC1)c1c(Cl)cccc1OCc1cc(=O)n2nc(-c3ccccc3)nc2[nH]1 [47-24, 2-chloro-N-((1-(4-chlorophenyl)cyclobutyl)methyl)-6-((7-oxo-2-phenyl-4,7-dihydro-[1,2,4]triazolo[1,5-a]pyrimidin-5-yl)methoxy)benzamide] |
|  | ≤ 1 nM | O=C(NCC1(c2ccccc2Cl)CC1)c1c(Cl)cccc1OCc1cc(=O)n2nc(-c3ccccc3)nc2[nH]1 [47-29, 2-chloro-N-((1-(2-chlorophenyl)cyclopropyl)methyl)-6-((7-oxo-2-phenyl-4,7-dihydro-[1,2,4]triazolo[1,5-a]pyrimidin-5-yl)methoxy)benzamide] |
| B (0.5 ≦ B < 0.001 μM) |  | COCc1c(Cl)cccc1OCc1cc(=O)n2nc(-c3ccccc3)nc2[nH]1 [22-2] |
|  | > 500 nM | Cc1c(Cl)cccc1OCc1cc(=O)n2nc(-c3ccccc3)nc2n1C [28-1] |
| B (0.5 ≦ B < 0.001 μM) |  | O=c1cc(COc2ccccc2OC(F)(F)F)[nH]c2nc(-c3ccccc3)nn12 [1-18] |
|  | > 500 nM | Cc1cnc2cccc(NCc3cc(=O)n4nc(-c5ccccc5)nc4[nH]3)n12 [1-104] |
| B (0.5 ≦ B < 0.001 μM) |  | O=c1cc(COc2ccc(Cl)c(F)c2)[nH]c2nc(-c3ccccc3)nn12 [1-94] |
|  | > 500 nM | Cn1ccc(NC(=O)c2ccccc2OCc2cc(=O)n3nc(-c4ccccc4)nc3[nH]2)n1 [47-57] |
